Conditions: in water

SMILES	solubility (mole fraction) (285.15 K)	solubility (mole fraction) (292.15 K)	solubility (mole fraction) (298.15 K)	solubility (mole fraction) (306.15 K)	solubility (mole fraction) (313.15 K)	solubility (mole fraction) (320.15 K)	solubility (mole fraction) (327.15 K)	solubility (mole fraction) (333.15 K)	solubility (mole fraction) (339.15 K)	solubility (mole fraction) (344.15 K)	solubility (mole fraction) (348.15 K)
O=C(O)c1cccc([N+](=O)[O-])c1C(=O)O	0.000774	0.000984	0.00141	0.00189	0.0026	0.00352	0.00467	0.00581	0.00713	0.00847	0.00955
O=C(O)c1ccc([N+](=O)[O-])cc1C(=O)O	0.087	0.103	0.117	0.137	0.153	0.172	0.188	0.2	0.211	0.218	0.222

Reference: BigSolDB 2.1
